# Legend:
# [1] = in vivo; cited from earlier work
# [2] = Stability of urinary T3 for time and temperature; type: physicochemical
# [3] = Stability of urine standard sub-pools measured monthly; type: physicochemical; details: 2 ml vials stored at -20 degrees Centigrade
# Description: These sub-pools were aliquoted into 2 ml vials and stored as above.
# [4] = Conjugates of T4 and T3 in patients' urine by enzymatic hydrolysis and IMx measurement; set-up: species or system human
# Description: Thyroxine glucuronidate in urine was hydrolysed with Sigma bacterial β-glucuronidase. The time interval for hydrolysis was tested from 1 to 24 hours under the conditions recommended by Sigma. It was also hydrolyzed by 0.2 N hydrochloric acid at pH 2 over a period of less than one hour.
# Bacterial sulfatase (Sigma) was used as directed. […] To confirm our data, triodothyronine sulfate was synthesized by methods of Levitz (personal communication) for radioactive estrone glucuronide.
# [5] = Stability of synthesized T3-sulfate; type: physicochemical; details: when not stored in liquid form in appropriate buffer
# Excerpt: Bacterial sulfatase (Sigma) was used as directed. We found little evidence of the presence of thyroxine sulfate in urine in our preliminary studies but significant levels of triiodothyronine-sulfate were present. To confirm our data, triodothyronine sulfate was synthesized by methods of Levitz (personal communication) for radioactive estrone glucuronide. T3-sulfate gave a unique spectrum with a major absorption maximum at 362 nm as compared to triiodothyronine whose major absorption maxima occurred at 318.
# [6] = stored with at least 20% (v/v) of buffer
compound,measurement,setting,value
N[C@@H](Cc1ccc(Oc2cc(I)c(O)c(I)c2)c(I)c1)C(=O)O [RT3],metabolic clearance rate,[1],111 L/d/70 kg
"N[C@@H](Cc1cc(I)c(Oc2ccc(O)c(I)c2)c(I)c1)C(=O)O [T3, O-(4-hydroxy-3-iodophenyl)-3,5-diiodo-L-tyrosine]",metabolic clearance rate,[1],24 L/d/70 kg
same,stability of T3 standards,[2]; all conditions of time and temperature,stable under all conditions
same,"stability of urinary T3, frozen state",[2]; [6],stable for months
same,"stability of urinary T3, room temperature",[2]; [6],over 3 days
same,"stability of urinary T3, native state","[2]; without buffer, frozen and room temperature",deteriorated in both environments at an accelerated rate
same,concentration in urine standard sub-pools over time,[3],unchanged for over a year
"N[C@@H](Cc1cc(I)c(Oc2ccc(OS(=O)(=O)O)c(I)c2)c(I)c1)C(=O)O [T3-sulfate, triiodothyronine-sulfate]",urinary concentration of conjugate relative to parent compound,"[4]; human urine, before and after hydrolysis",about one-third to one-half
same,stability of T3-sulfate,[5],unstable and rapidly deteriorated
"NC(Cc1cc(I)c(Oc2cc(I)c(O)c(I)c2)c(I)c1)C(=O)O (centres unmarked) [T4, O-(4-hydroxy-3,5-didiodophenyl)-3,5-diiodotyrosine]",form of conjugation in urine,[4],almost exclusively as a glucuronide
same,metabolic clearance rate,[1],1.2 L/d/70 kg

# From US20020076827A1, “Methods for diagnosing thyroid conditions and for monitoring thyroxine therapy” (priority 2000, published 2002)
